Experimental data from patent US12257238B2, “Magnesium biotinate compositions and methods of use” (Nutrition21, LLC, priority 2016, dated 2025).
Values after ≈ are worked out from the molar mass of the structure shown. Where two headings read alike, the source gives them in different places.

Key:
Liver cGMP = Liver cGMP in rats; assay type: in vivo, male Sprague-Dawley rats; conditions: 30 days, mean
[1] = cited from earlier work
[2] = Absorption study in rats: serum, liver and brain biotin; conditions: for Brain Biotin / Liver Biotin / Serum Biotin: 30 days, mean
in vivo = conditions: male, Sprague-Dawley, rat, serum, oral
[3] = Solubility of magnesium D-biotinate; conditions: for Solubility in water: compared with biotin
[4] = Stability of magnesium D-biotinate (storage, hygroscopicity, light); assay type: physicochemical
[5] = 1 mg/kg body weight, listed as B, 1 mg/kg
[6] = 100 mg/kg body weight, listed as B, 100 mg/kg
[7] = 0.01 mg/kg body weight, listed as MgB, 0.01 mg/kg
[8] = 1 mg/kg body weight, listed as MgB, 1 mg/kg
[9] = 100 mg/kg body weight, listed as MgB, 100 mg/kg

In the case of O=C(O)CCCC[C@@H]1SC[C@@H]2NC(=O)N[C@@H]21 [Biotin, D-biotin], the “Liver cGMP” value (Liver cGMP; 0.01 mg/kg body weight) is reported as 8.46 pmol/mg protein, the “Liver cGMP” value (Liver cGMP; 1 mg/kg body weight) is reported as 12.01 pmol/mg protein and the “Liver cGMP” value (Liver cGMP; 100 mg/kg body weight) is reported as 14.68 pmol/mg protein. The “Solubility” value ([1]; Benzene) was “Soluble”, the Solubility ([1]; Dimethyl sulfoxide (DMSO)) was 4.9 g/100 mL and the Solubility ([1]; Ethanol) was 80 mg/100 mL. The Solubility ([1]; Methanol) was 80 mg/100 mL, the Solubility ([1]; N,N-Dimethylformamide (DMF)) was 170 mg/100 mL and the Solubility ([1]; N,N-dimethylformamide, Merck Index) was 1.7 mg/mL (≈ 6.96 mM). The Solubility ([1]; Water) was 22 mg/100 mL, the “Solubility” value ([1]; other common organic solvents, Merck Index) was “insoluble” and the “Brain Biotin” value ([2]; 0.01 mg/kg body weight) was 0.14 nmol/g. The “Liver Biotin” value ([2]; 0.01 mg/kg body weight, listed as B, 0.01 mg/kg) was 0.02 nmol/g, the “Brain Biotin” value [2, 5] was 0.42 nmol/g and the “Liver Biotin” value [2, 5] was 0.56 nmol/g. For the same compound, the “Brain Biotin” value [2, 6] was 1.37 nmol/g, the “Liver Biotin” value [2, 6] was 1.38 nmol/g and the concentration at 30 days (in vivo; 0.01 mg/kg) was 23.6 nM. For the same compound, the concentration at 30 days (in vivo; 1 mg/kg) was 137 nM and the concentration at 30 days (in vivo; 100 mg/kg) was 3520 nM.

In the case of [O]=[Mg] [MgO, magnesium oxide], the “Solubility” value ([1]; Benzene) is listed as “salts insoluble”, the “Solubility” value ([1]; Dimethyl sulfoxide (DMSO)) is listed as “MgO insoluble;” and the “Solubility” value ([1]; Ethanol) is listed as “MgO insoluble;”. For the same compound, the “Solubility” value ([1]; Methanol) was “MgO insoluble;”, the “Solubility” value ([1]; N,N-Dimethylformamide (DMF)) was “MgO insoluble;” and the “Solubility” value ([1]; Water) was “MgO insoluble;”.

In the case of O=C(O)CCCC[C@@H]1SC[C@@H]2NC(=O)N[C@@H]21 [magnesium D-biotinate], the “Liver cGMP” value (Liver cGMP; 0.01 mg/kg body weight) is reported as 8.60 pmol/mg protein, the “Liver cGMP” value (Liver cGMP; 1 mg/kg body weight) is reported as 13.04 pmol/mg protein and the “Liver cGMP” value (Liver cGMP; 100 mg/kg body weight) is reported as 17.07 pmol/mg protein. For the same compound, the “Liver Biotin” value [2, 7] was 0.03 nmol/g, the “Serum Biotin” value [2, 7] was 23.41 nmol/L and the “Brain Biotin” value [2, 8] was 0.66 nmol/g. The “Liver Biotin” value [2, 8] was 0.71 nmol/g, the “Serum Biotin” value [2, 8] was 171.13 nmol/L and the “Brain Biotin” value [2, 9] was 1.65 nmol/g. For the same compound, the “Liver Biotin” value [2, 9] was 1.62 nmol/g, the “Serum Biotin” value [2, 9] was 5161.43 nmol/L and the Absorption ([2]; compared to biotin) was “higher absorption”. For the same compound, the Solubility ([3]; Water) was about 10000 µg/mL (≈ 40.9 mM), the Solubility ([3]; water) was at least 10000 µg/mL and the “Solubility in water” value ([3]; water) was “unexpectedly soluble in water”. For the same compound, the “Solubility in water” value ([3]; water, listed as magnesium biotinate) was “significantly improved solubility”, the Storage stability ([4]; 30 days at 40% relative humidity and 25° C.) was “stable” and the Storage stability ([4]; 30 days at 40% relative humidity and 25° C., listed as Magnesium biotinate) was “no signs of degradation”. For the same compound, the Storage stability ([4]; 30 days at 75% relative humidity and 40° C.) was “stable”, the Storage stability ([4]; 30 days at 75% relative humidity and 40° C., listed as Magnesium biotinate) was “no signs of degradation” and the “Stability on exposure to light” value ([4]; amorphous solid) was “stable upon exposure to light”. For the same compound, the Hygroscopicity ([4]; amorphous solid, as measured by weight) was “not hygroscopic”, the “Stability on exposure to light” value ([4]; amorphous solid, listed as Magnesium biotinate) was “did not change color” and the Storage stability ([4]; room temperature) was “stable”.
